Measured values taken from ChEMBL document CHEMBL5113487, “Novel anilinopyrimidine derivatives as potential EGFRT790M/C797S Inhibitors: Design, Synthesis, biological activity study” (Bioorg Med Chem, 2022).
One block for each compound: values may come before it.

Experiments:
[1] = molecular target: Epidermal growth factor receptor (Homo sapiens, UniProt P00533, C797S/EX18DEL/T790M); assay: Inhibition of EGFR del18/T790M/C797S triple mutant (unknown origin) using TK as substrate incubated for 120 mins in the presence of ATP by HTRF assay
[2] = molecular target: Epidermal growth factor receptor (Homo sapiens, UniProt P00533, C797S/L858R/T790M); assay: Inhibition of EGFR L858R/T790M/C797S triple mutant (unknown origin) using TK as substrate incubated for 120 mins in the presence of ATP by HTRF assay
[3] = system: BaF3; assay: Antiproliferative activity against mouse BaF3 cells harboring del18/T790M/C797S triple mutant assessed as cell growth inhibition incubated for 72 hrs by cell titre glo luminescence assay; format: functional, cell-based; details: BaF3, 72 h
[4] = system: Epidermal growth factor receptor (Homo sapiens), P00533 [UNDEFINED MUTATION]; assay: Potency index, ratio of brigatinib IC50 to test compound IC50 for inhibition of EGFR del18/T790M/C797S triple mutant (unknown origin) using TK as substrate incubated for 120 mins in the presence of ATP by HTRF assay
[5] = system: Epidermal growth factor receptor (Homo sapiens), P00533 [L858R,T790M,C797S]; assay: Potency index, ratio of brigatinib IC50 to test compound IC50 for inhibition of EGFR L858R/T790M/C797S triple mutant (unknown origin) using TK as substrate incubated for 120 mins in the presence of ATP by HTRF assay
[6] = molecular target: Epidermal growth factor receptor (Homo sapiens, UniProt P00533); assay: Inhibition of wild type EGFR (unknown origin) using TK as substrate incubated for 120 mins in the presence of ATP by HTRF assay
[7] = system: A-431; assay: Antiproliferative activity against human A-431 cells assessed as cell growth inhibition incubated for 72 hrs by cell titre glo luminescence assay; format: functional, cell-based; details: A-431, 72 h
[8] = Cmax in mouse at 5 mg/kg measured upto 24 hrs by LC-MS/MS analysis; format: ADME, organism-based; design: time < 24 hrs, dose 5 mg/kg; details: in vivo
[9] = AUC(0 to t) in mouse at 5 mg/kg measured upto 24 hrs by LC-MS/MS analysis; format: ADME, organism-based; design: time < 24 hrs, dose 5 mg/kg; details: in vivo
[10] = AUC(0 to infinity) in mouse at 5 mg/kg measured upto 24 hrs by LC-MS/MS analysis; format: ADME, organism-based; design: dose 5 mg/kg, time < 24 hrs; details: in vivo
[11] = Half-life in mouse at 5 mg/kg measured upto 24 hrs by LC-MS/MS analysis; format: ADME, organism-based; details: in vivo
[12] = MRT in mouse at 5 mg/kg measured upto 24 hrs by LC-MS/MS analysis; format: ADME, organism-based; details: in vivo

SMILES: CCc1cc(Nc2ncc(Br)c(Nc3ccc4nccnc4c3P(C)(C)=O)n2)c(OC)cc1N1CCC(N2CC(N(C)C)C2)CC1
IC50 [1]: 0.11 nM
IC50 [2]: 0.08 nM
IC50 [3]: 16 nM
Ratio IC50 [4]: 7
Ratio IC50 [5]: 40

SMILES: CCOC1CN(C2CCN(c3cc(OC)c(Nc4ncc(Br)c(Nc5ccc6ncnn6c5P(C)(C)=O)n4)cc3CC)CC2)C1
IC50 [1]: 0.9 nM
IC50 [2]: 0.67 nM
IC50 [6]: > 500 nM
IC50 [3]: 44 nM
IC50 [7]: 1010 nM

SMILES: COc1cc(N2CCC(N3CCCN(C)CC3)CC2)c(C)cc1Nc1ncc(Br)c(Nc2ccc3c(c2P(C)(C)=O)OCCO3)n1
IC50 [1]: 0.05 nM
IC50 [2]: 0.1 nM
IC50 [3]: 24 nM

SMILES: CCOC1CN(C2CCN(c3cc(OC)c(Nc4ncc(Br)c(Nc5ccc6c(c5P(C)(C)=O)OCCO6)n4)cc3C)CC2)C1
IC50 [3]: 32 nM
Cmax [8]: 2030 ng/mL
AUC(0-t) at 24 h [9]: 25200 ng·h/mL
AUC(0-inf) [10]: 25300 ng·h/mL
half-life [11]: 192 min
MRT [12]: 6.1 h

SMILES: CCN(C)C1CN(C2CCN(c3cc(OC)c(Nc4ncc(Br)c(Nc5ccc6c(c5P(C)(C)=O)OCCO6)n4)cc3C)CC2)C1
IC50 [2]: 0.28 nM
IC50 [6]: > 500 nM
IC50 [3]: 35 nM

SMILES: CCO[C@@H]1CCN(C2CCN(c3cc(OC)c(Nc4ncc(Br)c(Nc5ccc6c(c5P(C)(C)=O)OCCO6)n4)cc3C)CC2)C1
IC50 [1]: 0.28 nM
IC50 [2]: 0.41 nM
IC50 [3]: 30 nM
Cmax [8]: 1260 ng/mL
AUC(0-t) at 24 h [9]: 11100 ng·h/mL
AUC(0-inf) [10]: 11200 ng·h/mL
half-life [11]: 210 min
MRT [12]: 5.5 h

SMILES: COc1cc(N2CCC(N3CCCOCC3)CC2)c(C)cc1Nc1ncc(Br)c(Nc2ccc3c(c2P(C)(C)=O)OCCO3)n1
IC50 [1]: 0.13 nM
IC50 [2]: 0.19 nM
IC50 [3]: 20 nM

SMILES: CCc1cc(Nc2ncc(Br)c(Nc3ccc4ncnn4c3P(C)(C)=O)n2)c(OC)cc1N1CCC(N2CC(COC)C2)CC1
IC50 [1]: 0.1 nM
IC50 [2]: 0.84 nM
IC50 [6]: > 500 nM
IC50 [3]: 37 nM
IC50 [7]: 702 nM

SMILES: CCc1cc(Nc2ncc(Br)c(Nc3ccn4ncnc4c3P(C)(C)=O)n2)c(OC)cc1N1CCC(N2CCOCC2)CC1
IC50 [1]: 0.18 nM
IC50 [2]: 0.93 nM
IC50 [6]: > 500 nM
IC50 [3]: 40 nM
IC50 [7]: 1300 nM

SMILES: COc1cc(N2CCC(N3CC[C@H](N(C)C)C3)CC2)c(C)cc1Nc1ncc(Br)c(Nc2ccc3c(c2P(C)(C)=O)OCCO3)n1
IC50 [1]: 0.12 nM
IC50 [2]: 0.15 nM
IC50 [3]: 28 nM

SMILES: CCc1cc(Nc2ncc(Br)c(Nc3ccn4ncnc4c3P(C)(C)=O)n2)c(OC)cc1N1CCC(N2CCN(CC)CC2)CC1
IC50 [1]: 0.1 nM
IC50 [2]: 0.67 nM
IC50 [6]: > 500 nM
IC50 [3]: 34 nM
IC50 [7]: 731 nM

SMILES: CCc1cc(Nc2ncc(Br)c(Nc3ccc4c(c3P(C)(C)=O)OCO4)n2)c(OC)cc1N1CCC(N2CC(N(C)C)C2)CC1
IC50 [1]: 0.4 nM
IC50 [2]: 0.15 nM
IC50 [3]: 14 nM
Cmax [8]: 1470 ng/mL
AUC(0-t) at 24 h [9]: 12300 ng·h/mL
AUC(0-inf) [10]: 12500 ng·h/mL
half-life [11]: 252 min
MRT [12]: 6 h

SMILES: CCOC1CN(C2CCN(c3cc(OC)c(Nc4ncc(Br)c(Nc5ccc6nccnc6c5P(C)(C)=O)n4)cc3C)CC2)C1
IC50 [1]: 0.65 nM
IC50 [2]: 0.43 nM
IC50 [6]: 652 nM
IC50 [3]: 29 nM
IC50 [7]: 422 nM

The next compounds have a lower IC50 [3] than those just listed; values first:

IC50 [1]: 0.83 nM
IC50 [2]: 0.27 nM
IC50 [6]: 3000 nM
IC50 [3]: 9 nM
IC50 [7]: 490 nM
SMILES: CCc1cc(Nc2ncc(Br)c(Nc3ccc4nccnc4c3P(C)(C)=O)n2)c(OC)cc1N1CCC(N2CCCN(C)CC2)CC1

IC50 [1]: 0.49 nM
IC50 [2]: 0.41 nM
IC50 [6]: 416 nM
IC50 [3]: 7 nM
SMILES: CCc1cc(Nc2ncc(Br)c(Nc3ccc4c(c3P(C)(C)=O)OCCO4)n2)c(OC)cc1N1CCC(N2CC(CC#N)C2)CC1

IC50 [1]: 0.08 nM
IC50 [2]: 0.08 nM
IC50 [3]: 8 nM
Cmax [8]: 2110 ng/mL
AUC(0-t) at 24 h [9]: 21000 ng·h/mL
AUC(0-inf) [10]: 21400 ng·h/mL
half-life [11]: 240 min
MRT [12]: 6.3 h
SMILES: CCc1cc(Nc2ncc(Br)c(Nc3ccc4c(c3P(C)(C)=O)OCCO4)n2)c(OC)cc1N1CCC(N2CC(N(C)C)C2)CC1

IC50 [1]: 0.3 nM
IC50 [2]: 0.22 nM
IC50 [3]: 13 nM
Cmax [8]: 1680 ng/mL
AUC(0-t) at 24 h [9]: 16400 ng·h/mL
AUC(0-inf) [10]: 16500 ng·h/mL
half-life [11]: 336 min
MRT [12]: 6 h
SMILES: COc1cc(N2CCC(N3CC(N(C)C)C3)CC2)c(C)cc1Nc1ncc(Br)c(Nc2ccc3c(c2P(C)(C)=O)OCCO3)n1

IC50 [1]: 0.15 nM
IC50 [2]: 0.12 nM
IC50 [3]: 12 nM
SMILES: CCc1cc(Nc2ncc(Br)c(Nc3ccc4c(c3P(C)(C)=O)OCCO4)n2)c(OC)cc1N1CCC(N2CC(COC)C2)CC1

IC50 [1]: 0.06 nM
IC50 [2]: 0.09 nM
IC50 [3]: 13 nM
SMILES: COc1cc(N2CCC(N3CC(N(C)C)C3)CC2)c(C)cc1Nc1ncc(Br)c(Nc2ccc3nccnc3c2P(C)(C)=O)n1
